According to paper PMC9291951 (British Journal of Pharmacology, 2020):
One block for each molecule: values may come before it.

Columns and labels:
TRPV4 = conditions: read-out: IC50 (antagonist); ref Cheung et al., 2017; cited from earlier work
hTRPV4-Y591A = hTRPV4-Y591A (Homo sapiens, UniProt Q9HBA0, Y591A); experiment: Ca2+ imaging; format: cell-based
hTRPV4-D546A = hTRPV4-D546A (Homo sapiens, UniProt Q9HBA0, D546A); experiment: Ca2+ imaging; format: cell-based; conditions: for Blocking effect in mutant versus wild-type channel: D546A
hTRPV4-Y591H = hTRPV4-Y591H (Homo sapiens, UniProt Q9HBA0, Y591H); experiment: Ca2+ imaging; format: cell-based
[1] = target: human TRPV4 wild-type (hTRPV4-WT) (Homo sapiens, UniProt Q9HBA0); experiment: Ca2+ imaging; format: cell-based; conditions: HeLa cells
Sequence of human TRPV4 wild-type (hTRPV4-WT) (Q9HBA0 whole entry): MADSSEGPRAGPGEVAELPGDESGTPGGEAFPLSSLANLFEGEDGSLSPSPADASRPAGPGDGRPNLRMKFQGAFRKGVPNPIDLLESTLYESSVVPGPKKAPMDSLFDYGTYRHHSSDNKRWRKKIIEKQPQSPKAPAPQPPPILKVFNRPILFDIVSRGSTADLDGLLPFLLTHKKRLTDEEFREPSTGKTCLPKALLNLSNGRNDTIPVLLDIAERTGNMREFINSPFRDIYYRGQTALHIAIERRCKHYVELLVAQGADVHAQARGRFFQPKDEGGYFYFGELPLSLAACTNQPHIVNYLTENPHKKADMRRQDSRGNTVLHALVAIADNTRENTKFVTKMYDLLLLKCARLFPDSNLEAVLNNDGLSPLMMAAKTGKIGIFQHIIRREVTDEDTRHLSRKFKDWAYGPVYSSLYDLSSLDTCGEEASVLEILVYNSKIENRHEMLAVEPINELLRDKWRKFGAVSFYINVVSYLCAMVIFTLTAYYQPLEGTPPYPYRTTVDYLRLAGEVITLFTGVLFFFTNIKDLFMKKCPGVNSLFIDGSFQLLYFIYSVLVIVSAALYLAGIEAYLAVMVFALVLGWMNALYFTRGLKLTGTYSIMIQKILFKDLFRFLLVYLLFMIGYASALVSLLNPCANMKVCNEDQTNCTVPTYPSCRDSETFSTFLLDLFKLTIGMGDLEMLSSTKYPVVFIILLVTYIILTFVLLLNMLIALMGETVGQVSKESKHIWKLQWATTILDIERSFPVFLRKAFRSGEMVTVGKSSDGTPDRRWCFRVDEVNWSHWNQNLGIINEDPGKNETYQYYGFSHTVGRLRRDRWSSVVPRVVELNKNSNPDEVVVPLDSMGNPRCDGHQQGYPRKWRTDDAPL

Sequence of hTRPV4-D546A (Q9HBA0 whole entry D546A): as the sequence (Q9HBA0 whole entry) above, with D546A counted along it
Sequence of hTRPV4-Y591H (Q9HBA0 whole entry Y591H): as the sequence (Q9HBA0 whole entry) above, with Y591H counted along it
Sequence of hTRPV4-Y591A (Q9HBA0 whole entry Y591A): as the sequence (Q9HBA0 whole entry) above, with Y591A counted along it

SMILES: CC(C)(O)c1cnc(N2C[C@@]3(CCC[C@](C)(Cn4cnc5ccc(C#N)cc54)C3)OC2=O)cn1 [GSK2798745]
IC50 (TRPV4): 16 nM

SMILES: N.N.N.N.N.N.N.N.N.N.N.N.N.N.[Cl-].[Cl-].[Cl-].[Cl-].[Cl-].[Cl-].[O-2].[O-2].[Ru+3].[Ru+3].[Ru+4] [ruthenium red]
Blocking effect in mutant versus wild-type channel (hTRPV4-Y591A; Y591A, 30% hypotonic solution, 1-μM ruthenium red): not affected
Blocking effect in mutant versus wild-type channel (hTRPV4-D546A; 1-nM GSK1016790A, ruthenium red 10 nM to 10 μM): not affected
Blocking effect in mutant versus wild-type channel (hTRPV4-D546A; 30% hypotonic solution, 1-μM ruthenium red): not affected
Blocking effect in mutant versus wild-type channel (hTRPV4-Y591H; Y591H, 30% hypotonic solution, 1-μM ruthenium red): not affected

Channel activation by agonist [1]: activated
Channel activation by agonist (hTRPV4-D546A; TRPV4-D546A, HeLa cells, Ca2+ imaging): activated
SMILES: CC(C)C[C@H](NC(=O)c1cc2ccccc2s1)C(=O)N1CCN(C(=O)[C@H](CO)NS(=O)(=O)c2ccc(Cl)cc2Cl)CC1 [GSK1016790A, N‐((1S)‐1‐{[4‐((2S)‐2‐{[(2,4‐Dichlorophenyl)sulfonyl]amino}‐3‐hydroxypropanoyl)‐1‐piperazinyl]carbonyl}‐3‐methylbutyl)‐1‐benzothiophene‐2‐carboxamide]
Channel response to agonist (hTRPV4-Y591A; hTRPV4-Y591A, 1-nM GSK1016790A): Neither hTRPV4‐Y591A nor hTRPV4‐Y591H responded
Channel response to agonist (hTRPV4-Y591H; hTRPV4-Y591H, 1-nM GSK1016790A): Neither hTRPV4‐Y591A nor hTRPV4‐Y591H responded
